Results on eight compounds are retold here after US8940291B2 (priority 2009, dated 2015).

One data set relates to VSVΔ51-induced genes. Format: cell-based, mouse.
Data set [1] concerns VSVΔ51. In kind it is cell-based, Vesicular stomatitis virus.
The test system of a further data set is wild type VSV. Format: cell-based, Vesicular stomatitis virus.
Another data set deals with 4T1 cells. In kind it is cell-based, mouse. The note with it: 48 h.
A further data set has as its system CT26 cells. In kind it is cell-based, mouse. Conditions: 48 h.
For data set [2], the system named is oncolytic vaccinia virus (VVdd). Format: cell-based. Conditions: 20 μM; 72 h.
The next data set deals with B16 melanoma cells. Kind of data set: Cell cycle analysis in B16 melanoma cells (propidium iodine, flow cytometry). In kind it is cell-based, mouse. Conditions: over 48 hours. Background: In flow cytometry, cells or beads pass a laser one at a time.
Data set [3] concerns IFN mediated antiviral state in U251 cells. In kind it is cell-based, human.
In data set [4] the test system is VSVΔ51. In kind it is cell-based, Vesicular stomatitis virus. The note with it: 40 h.
The subject of another data set is ISRE-luciferase reporter. Format: cell-based, human.
In data set [5] the test system is VSVΔ51. Format: cell-based, Vesicular stomatitis virus. This is another data set of the same source.
Data set [6] concerns VSVΔ51. In kind it is cell-based, Vesicular stomatitis virus. This is another data set of the same source.
Data set [7] relates to VSVΔ51. In kind it is cell-based, Vesicular stomatitis virus. Conditions: 48 hours.
Data set [8] relates to VSVΔ51. In kind it is cell-based, Vesicular stomatitis virus. The source holds these as a separate data set.
Data set [9] relates to IFN responsive U251 cells. In kind it is cell-based, human.
The subject of data set [10] is VSVΔ51. Format: cell-based, Vesicular stomatitis virus. This is another data set of the same source.
In another data set the test system is wild type VSV (wtVSV). Format: cell-based, Vesicular stomatitis virus.
The test system of data set [11] is VSVΔ51. In kind it is cell-based, Vesicular stomatitis virus. The source holds these as a separate data set.
Where [12] appears, read: 4 h pre-treatment, with and without VSVΔ51.

Entries after “also recorded” stand apart in the source; their conditions may differ. Like-named read-outs stand apart in the source and are kept apart here.

Consider `O=C(CCCCCCC(=O)Nc1ccccc1)NO` [SAHA, reference compound], for which the “share of VSVΔ51-induced cellular genes whose induction is reduced” value in the data set with VSVΔ51-induced genes worked out at 79%.
With Parbendazole, the “VSV-induced cytotoxicity (VSV/CTRL kill ratio)” value in the data set with 4T1 and CT26 cells (setting [12]) is given as “enhance VSV-induced cytotoxicity”.
Turning to `O=C1OC(c2ccccc2)C(Cl)=C1Cl` (stereo not shown) [VSe1, 3,4-dichloro-5-phenyl-2,5-dihydrofuran-2-one], in the data set on VSVΔ51 [1], the “increase in viral titer” value came to 1000 fold. Further, in the data set on wild type VSV, the “growth of VSV with a wild type M gene” value is “minimal ability to enhance the growth”. Moreover, in the data set on 4T1 cells, the “cell killing in combination with VSVΔ51 (combination index)” value was “synergistic cell killing”. In the data set with CT26 cells, the “cell killing in combination with VSVΔ51 (combination index)” value is on record as “synergistic cell killing”. The “VVdd spread and viral output” value in [2] is “able to enhance the spread and replication; also recorded: enhanced spread and viral output; also recorded: enhances spread”. Moreover, the cell cycle distribution result in the data set with B16 melanoma cells (listed as DCPDF) is given as “cells ultimately accumulate in G1; also recorded: block in G1”. Besides, in [3], the “sensitivity of IFN-protected cells to VSVΔ51” value was “partially re-sensitized to VSVΔ51; also recorded: can overcome pre-existing IFN mediated antiviral state”. For the same compound, the “interferon protection from VSVΔ51 infection” value in the data set with VSVΔ51 [4] is reported as “partially overcome”. In addition, the “interferon dependent transcription (luciferase)” value in the data set with ISRE-luciferase reporter is on record as “blunted”. In the data set on VSVΔ51-induced genes, the “share of VSVΔ51-induced cellular genes whose induction is reduced” value is “over 96%”. Besides, in the data set on VSVΔ51 [5], the “differential in replication between normal and cancerous tissues” value was “roughly 1000 fold”; the “growth of VSVΔ51 in tumour tissue” value is “over 100 fold”. Also, the “VSVΔ51-GFP growth and spread (green fluorescence)” value in the data set on VSVΔ51 [5] (40 μM) is “significantly enhanced”. The “replication of VSVΔ51 in normal tissues” value with VSVΔ51 [6] is on record as “did not increase the replication”.
`COC(=O)Nc1nc2ccc(C(=O)c3cccs3)cc2[nH]1` [Nocodazole]: the “VSV-induced cytotoxicity (VSV/CTRL kill ratio)” value with 4T1 and CT26 cells (setting [12]) is on record as “enhance VSV-induced cytotoxicity”.
Still for that read-out and setting: with `CCC1=C[C@@H]2CN(C1)Cc1c([nH]c3ccccc13)[C@@](C(=O)OC)(c1cc3c(cc1OC)N(C)[C@H]1[C@@](O)(C(=O)OC)[C@H](OC(C)=O)[C@]4(CC)C=CCN5CC[C@]31[C@@H]54)C2` [Vinorelbine base, Vinorelbine Base] the entry was “enhance VSV-induced cytotoxicity”; with `CCCSc1ccc2nc(NC(=O)OC)[nH]c2c1` [Albendazole], “enhance VSV-induced cytotoxicity”.
As for `COc1cc2c(c(OC)c1OC)-c1ccc(OC)c(=O)cc1[C@@H](NC(C)=O)CC2` [colchicine], the “lowest dose with strong enhancement of VSVΔ51 (GFP) spread” value with VSVΔ51 [7] is given as 80 nM. Besides, in the data set on VSVΔ51 [8], the “enhancement of virus production (maximum)” value is listed as about 1000 fold. In addition, in data set [9], the VSV oncolysis result is “enhanced VSV oncolysis” and the “ability to overcome IFN-induced antiviral effects” value is listed as “could not overcome IFN-induced antiviral effects”. For the same compound, the VSVΔ51 spread result with VSVΔ51 [10] is “enhanced spread of VSVΔ51”. The “number of GFP positive cells with wtVSV” value in the data set on wild type VSV (wtVSV) is reported as “appeared to decrease the number of GFP positive cells”. For the same compound, the “enhancement of VSVΔ51 spread” value in the data set with VSVΔ51 [11] is “not observed in normal MRC-5 cells”. For the same compound, in the data set with 4T1 and CT26 cells, the “VSV-induced cytotoxicity (VSV/CTRL kill ratio)” value is “enhance VSV-induced cytotoxicity”.
As to `CC(/C=C/C(=O)NO)=C\[C@@H](C)C(=O)c1ccc(N(C)C)cc1` [TSA, reference compound], in the data set with B16 melanoma cells, the cell cycle distribution entry is given as “blocks the cell cycle in G1”.
